Source: paper PMC3880798 (Clinical cancer research : an official journal of the …, 2013)

How the values were obtained:
[1] = Plasma pharmacokinetics of OSI-930; type: in vivo, human; details: for AUC / Cmax / concentration at 22 day / half-life / Tmax: human, plasma
[2] = human, in vivo

## O=C(Nc1ccc(OC(F)(F)F)cc1)c1sccc1NCc1ccnc2ccccc12 [OSI-930]
[1]; 400 mg twice a day cohort, 3 vs 4 patients, data not shown
  Rate and extent of absorption, sieved (screened) vs micronized capsules: similar
[1]; 400 and 500 mg twice a day
  Dose proportionality of exposure: dose proportional
[1]; between 500 and 600 mg twice a day
  Dose proportionality of exposure: greater than dose proportional
[1]; oral, 50 mg, AUCtau, 50 mg once a day (n = 1), day 22, steady state
  AUC: 2590 ng·h/mL
[1]; oral, 50 mg, Cmax, 50 mg once a day (n = 1), day 22, steady state
  Cmax: 188 ng/mL
[1]; oral, 50 mg, Cmin, 50 mg once a day (n = 1), day 22, steady state
  concentration at 22 day: 69.3 ng/mL
[1]; oral, 50 mg, T1/2, 50 mg once a day (n = 1), day 22, steady state
  half-life: 12.6 h
[1]; oral, 50 mg, Tmax, 50 mg once a day (n = 1), day 22, steady state
  Tmax: 6 h
[1]; oral, 100 mg, AUCtau, 100 mg once a day (n = 1), day 22, steady state
  AUC: 2490 ng·h/mL
[1]; oral, 100 mg, Cmax, 100 mg once a day (n = 1), day 22, steady state
  Cmax: 228 ng/mL
[1]; oral, 100 mg, Cmin, 100 mg once a day (n = 1), day 22, steady state
  concentration at 22 day: 61.5 ng/mL
[1]; oral, 100 mg, T1/2, 100 mg once a day (n = 1), day 22, steady state
  half-life: 18.5 h
[1]; oral, 100 mg, Tmax, 100 mg once a day (n = 1), day 22, steady state
  Tmax: 4 h
[1]; oral, 200 mg, AUCtau, 200 mg once a day (n = 1), day 22, steady state
  AUC: 4730 ng·h/mL
[1]; oral, 200 mg, Cmax, 200 mg once a day (n = 1), day 22, steady state
  Cmax: 463 ng/mL
[1]; oral, 200 mg, Cmin, 200 mg once a day (n = 1), day 22, steady state
  concentration at 22 day: 77.9 ng/mL
[1]; oral, 200 mg, T1/2, 200 mg once a day (n = 1), day 22, steady state
  half-life: 7.95 h
[1]; oral, 200 mg, Tmax, 200 mg once a day (n = 1), day 22, steady state
  Tmax: 6 h
[1]; oral, 400 mg, AUCtau, 400 mg once a day (n = 2), day 22, steady state
  AUC: 10700 ng·h/mL
[1]; oral, 400 mg, AUCtau, 400 mg twice a day (n = 6), day 22, steady state
  AUC: 7880 ng·h/mL
[1]; oral, 400 mg, Cmax, 400 mg once a day (n = 2), day 22, steady state
  Cmax: 873 ng/mL
[1]; oral, 400 mg, Cmax, 400 mg twice a day (n = 6), day 22, steady state
  Cmax: 802 ng/mL
[1]; oral, 400 mg, Cmin, 400 mg once a day (n = 2), day 22, steady state
  concentration at 22 day: 306 ng/mL
[1]; oral, 400 mg, Cmin, 400 mg twice a day (n = 6), day 22, steady state
  concentration at 22 day: 423 ng/mL
[1]; oral, 400 mg, T1/2, 400 mg once a day (n = 2), day 22, steady state
  half-life: 13.8 h
[1]; oral, 400 mg, T1/2, 400 mg twice a day (n = 6), day 22, steady state
  half-life: 4.07 h
[1]; oral, 400 mg, Tmax, 400 mg once a day (n = 2), day 22, steady state
  Tmax: 4 h
[1]; oral, 400 mg, Tmax, 400 mg twice a day (n = 6), day 22, steady state
  Tmax: 6.1 h
[1]; oral, 500 mg, AUCtau, 500 mg twice a day (n = 21), day 22, steady state
  AUC: 5760 ng·h/mL
[1]; oral, 500 mg, Cmax, 500 mg twice a day (n = 21), day 22, steady state
  Cmax: 1010 ng/mL
[1]; oral, 500 mg, Cmin, 500 mg twice a day (n = 21), day 22, steady state
  concentration at 22 day: 547 ng/mL
[1]; oral, 500 mg, T1/2, 500 mg twice a day (n = 21), day 22, steady state
  half-life: 7.11 h
[1]; oral, 500 mg, Tmax, 500 mg twice a day (n = 21), day 22, steady state
  Tmax: 3.6 h
[1]; oral, 600 mg, AUCtau, 600 mg twice a day (n = 6), day 22, steady state
  AUC: 11900 ng·h/mL
[1]; oral, 600 mg, Cmax, 600 mg twice a day (n = 6), day 22, steady state
  Cmax: 2030 ng/mL
[1]; oral, 600 mg, Cmin, 600 mg twice a day (n = 6), day 22, steady state
  concentration at 22 day: 1170 ng/mL
[1]; oral, 600 mg, T1/2, 600 mg twice a day (n = 6), day 22, steady state
  half-life: 5.39 h
[1]; oral, 600 mg, Tmax, 600 mg twice a day (n = 6), day 22, steady state
  Tmax: 3.5 h
[1]; oral, 800 mg, AUCtau, 800 mg once a day (n = 2), day 22, steady state
  AUC: 11300 ng·h/mL
[1]; oral, 800 mg, Cmax, 800 mg once a day (n = 2), day 22, steady state
  Cmax: 984 ng/mL
[1]; oral, 800 mg, Cmin, 800 mg once a day (n = 2), day 22, steady state
  concentration at 22 day: 304 ng/mL
[1]; oral, 800 mg, T1/2, 800 mg once a day (n = 2), day 22, steady state
  half-life: 18.1 h
[1]; oral, 800 mg, Tmax, 800 mg once a day (n = 2), day 22, steady state
  Tmax: 4.1 h
[1]; oral, 1200 mg, AUCtau, 1,200 mg once a day (n = 1), day 22, steady state
  AUC: 19600 ng·h/mL
[1]; oral, 1200 mg, Cmax, 1,200 mg once a day (n = 1), day 22, steady state
  Cmax: 1990 ng/mL
[1]; oral, 1200 mg, Cmin, 1,200 mg once a day (n = 1), day 22, steady state
  concentration at 22 day: 493 ng/mL
[1]; oral, 1200 mg, T1/2, 1,200 mg once a day (n = 1), day 22, steady state
  half-life: 20.2 h
[1]; oral, 1200 mg, Tmax, 1,200 mg once a day (n = 1), day 22, steady state
  Tmax: 4 h
[1]; oral, 1600 mg, AUCtau, 1,600 mg once a day (n = 3), day 22, steady state
  AUC: 13000 ng·h/mL
[1]; oral, 1600 mg, Cmax, 1,600 mg once a day (n = 3), day 22, steady state
  Cmax: 1070 ng/mL
[1]; oral, 1600 mg, Cmin, 1,600 mg once a day (n = 3), day 22, steady state
  concentration at 22 day: 249 ng/mL
[1]; oral, 1600 mg, T1/2, 1,600 mg once a day (n = 3), day 22, steady state
  half-life: 12.6 h
[1]; oral, 1600 mg, Tmax, 1,600 mg once a day (n = 3), day 22, steady state
  Tmax: 6 h
[1]; oral, Terminal half-life, twice a day cohort
  half-life: 2.3 to 7.1 h
[1]; po, Time to peak plasma concentrations, once a day and twice a day cohorts
  Tmax: 2 to 10 h
[1]; once a day cohorts
  Linearity of Cmax and AUC: linearity in Cmax and AUC in the dose range 50 to 1,200 mg, but not at 1,600 mg
[1]; twice a day oral administration
  Accumulation in plasma at steady state: ~2 fold
[1]; twice a day oral administration, predose concentrations days 8, 15, 22
  Steady state plasma concentrations achieved: ≤ 8 days
[2]
  Cases of grade 2 proteinuria: 1 case
  Grade 3 hypertension (number): 1
  Patients requiring a dose modification: 33 patients
  Patients who developed grade 1 to 2 PPE: 15%
  Patients with adverse events considered related to OSI-930: 58%
